Data on seven compounds can be found in ChEMBL document CHEMBL1201862, “PubChem BioAssay data set” (2004).

Assay in all cases: NCI-60 cell line screen, 48 h
Experiment [1] concerns SNB-19.
Experiment [2] deals with SK-OV-3.
In experiment [3] the test system is UO-31.
In experiment [4] the test system is RPMI-8226.
Experiment [5] relates to NCI/ADR-RES.
In experiment [6] the test system is OVCAR-4.
In experiment [7] the test system is LOX IMVI.
Experiment [8] deals with U-251.
Experiment [9] has as its system UACC-62.
In experiment [10] the test system is OVCAR-8.
In experiment [11] the test system is SN12C.
The subject of experiment [12] is HOP-92.
Experiment [13] concerns SK-MEL-2.
The subject of experiment [14] is IGROV-1.
The subject of experiment [15] is Hs-578T.
In experiment [16] the test system is SK-MEL-28.
Experiment [17] has as its system ACHN.
The test system of experiment [18] is HCT-15.
Experiment [19] deals with SR.
The test system of experiment [20] is KM12.

Each structure is given as a SMILES string.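 All cell lines were grown in 96-well plates and treated with compound for 48 hours. GI50: concentration for 50% inhibition of growth.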 Calls of active or inactive are those of the source. No stated cut-off is given here; in the data, active = GI50 up to about 1.1 µM and inactive = higher.

Turning to `Nc1ccc(-c2nc3ccccc3s2)cc1Br`, the GI50 is 60.4 µM (inactive) in experiment [1]; > 71.4 µM (inactive) in [2]; 27.5 µM (inactive) in experiment [3]; 70.8 µM (inactive) in [4]; > 100 µM (inactive) in experiment [5]; > 100 µM (inactive) in experiment [6]. Further, the GI50 in experiment [7] is > 80.9 µM (inactive); in experiment [8] it was 57.5 µM (inactive); in [9], > 100 µM (inactive); in experiment [10] it was > 75.2 µM (inactive); in experiment [11], > 100 µM (inactive); in [12], 26.5 µM (inactive). In addition, the GI50 in experiment [13] is > 100 µM (inactive); in [14] it was < 0.01 µM (active); in experiment [15] it was 24 µM (inactive); in experiment [16] it was > 100 µM (inactive); in experiment [17] it was > 80.9 µM (inactive); in experiment [18], 62.8 µM. Moreover, the GI50 in experiment [19] was > 94.8 µM (inactive); in experiment [20], > 92.9 µM (inactive).

On to `COc1cccc(C2CC(C)(O)Oc3cc4c(cc32)OCO4)c1O` (stereo not given), for which the GI50 in experiment [1] was 31 µM (inactive); in experiment [2], 28.5 µM (inactive); in [3], 35.6 µM (inactive); in experiment [4], 32.5 µM (inactive); in [5], 19.7 µM (inactive); in experiment [6] it was 38.8 µM (inactive). The GI50 was 25.3 µM (inactive) in experiment [7]; 24.2 µM (inactive) in experiment [8]; 15.7 µM (inactive) in experiment [9]; 25.7 µM (inactive) in [10]; 28.7 µM (inactive) in experiment [11]; 22.4 µM (inactive) in experiment [12]. In addition, the GI50 was 22.8 µM (inactive) in [13]; 27.9 µM (inactive) in experiment [14]; 15.4 µM (inactive) in experiment [15]; 35.2 µM (inactive) in [16]; 31.8 µM (inactive) in [17]; 21.7 µM in experiment [18]. Moreover, the GI50 in experiment [19] is 4.63 µM (inactive); in experiment [20], 12.5 µM (inactive).

In the case of `Cc1ccc(C2=NN=C3C(c4ccccc4)=Nc4ccccc4N3C2)cc1`, the GI50 in [1] is 16.9 µM (inactive); in experiment [2], 21 µM (inactive); in experiment [3], 4.1 µM (inactive); in experiment [4] it was 5.98 µM (inactive); in [5] it was 3.93 µM (inactive); in experiment [6] it was 3.18 µM (inactive). The GI50 was 5.65 µM (inactive) in experiment [7]; 6.49 µM (inactive) in [8]; 15.7 µM (inactive) in experiment [9]; 6.07 µM (inactive) in experiment [10]; 15.5 µM (inactive) in experiment [11]; 24.1 µM (inactive) in [12]. Besides, the GI50 was 22.6 µM (inactive) in [13]; 13.1 µM (inactive) in experiment [14]; 9.16 µM (inactive) in experiment [15]; > 38 µM (inactive) in experiment [16]; 16.7 µM (inactive) in experiment [17]; 4.73 µM in experiment [18]. The GI50 in experiment [19] is 1.56 µM (inactive); in experiment [20] it was 26.4 µM (inactive).

As for `CN(C)CCNC1=CC(=O)c2nc3ccccc3c3ccnc1c23`, the GI50 in experiment [1] was 5.01 µM (inactive); in [2], 10.1 µM (inactive); in [3], 3.89 µM (inactive); in experiment [4] it was 5.47 µM (inactive); in experiment [5] it was 4.13 µM (inactive); in [6] it was 3.57 µM (inactive). The GI50 in experiment [7] is 2.04 µM (inactive); in experiment [8] it was 8.26 µM (inactive); in [9] it was 5.31 µM (inactive); in experiment [10], 4.36 µM (inactive); in experiment [11] it was 6.49 µM (inactive); in experiment [12], 11.7 µM (inactive). Also, the GI50 is 7.38 µM (inactive) in experiment [13]; 2.47 µM (inactive) in [14]; 4.95 µM (inactive) in [15]; 11.4 µM (inactive) in experiment [16]; 3.05 µM (inactive) in experiment [17]; 3.23 µM in experiment [18]. Moreover, the values for the GI50 in experiment [19] and in experiment [20] were 2.25 µM (inactive) and 3.34 µM (inactive), respectively.

As for `NCCSS(=O)(=O)CCN`, the GI50 in experiment [1], in experiment [2], in experiment [3], in experiment [4], in experiment [5] and in experiment [6] was > 100 µM (inactive) in each case. The GI50 in experiment [7], in [8], in experiment [9], in experiment [10], in experiment [11] and in experiment [12] was > 100 µM (inactive) each time. Moreover, the GI50 is > 100 µM (inactive) in experiment [13]; > 100 µM (inactive) in [14]; > 100 µM (inactive) in experiment [15]; > 100 µM (inactive) in experiment [16]; > 100 µM (inactive) in experiment [17]; more than 100 µM in experiment [18]. Further, the GI50 in experiment [19] and in experiment [20] was > 100 µM (inactive) each time.

For the compound `COc1nc(SC)nc2c1C(O)n1c(nc3ccccc31)S2` (stereo not given), the GI50 in experiment [1] is 25.2 µM (inactive); in [2], 22.8 µM (inactive); in experiment [3], 3.08 µM (inactive); in experiment [4], 0.42 µM (active); in experiment [5], 10.5 µM (inactive); in experiment [6], 17.4 µM (inactive). In addition, the GI50 is 34.6 µM (inactive) in experiment [7]; 10.6 µM (inactive) in experiment [8]; 0.551 µM (active) in experiment [9]; 14.1 µM (inactive) in [10]; 24.3 µM (inactive) in experiment [11]; 23.3 µM (inactive) in experiment [12]. Besides, the GI50 is 28.9 µM (inactive) in [13]; 40.9 µM (inactive) in experiment [14]; 16 µM (inactive) in experiment [15]; 9.16 µM (inactive) in [16]; 18.4 µM (inactive) in experiment [17]; 33.5 µM in [18]. Besides, the GI50 in experiment [19] is 3.58 µM (inactive); in experiment [20] it was 25.4 µM (inactive).

Consider `O=C(CC(O)(C(F)(F)F)C(F)(F)Cl)CC(O)(C(F)(F)F)C(F)(F)Cl` (stereo not given), for which the GI50 in experiment [1] was 2.22 µM (inactive); in experiment [2], 1.4 µM (inactive); in [3], 1.44 µM (inactive); in experiment [4] it was 7.1 µM (inactive); in experiment [5], 2.58 µM (inactive); in experiment [6], 1.42 µM (inactive). The GI50 in [7] is 2.82 µM (inactive); in experiment [8], 1.88 µM (inactive); in experiment [9], 1.65 µM (inactive); in [10], 2.88 µM (inactive); in experiment [11], 1.5 µM (inactive); in experiment [12], 1.71 µM (inactive). In addition, the GI50 was 1.59 µM (inactive) in [13]; 2.47 µM (inactive) in experiment [14]; 2.07 µM (inactive) in experiment [15]; 4.34 µM (inactive) in [16]; 1.77 µM (inactive) in experiment [17]; 1.79 µM in [18]. Besides, the values for the GI50 in [19] and in experiment [20] were > 10 µM (inactive) and 3.09 µM (inactive), respectively.
